Experiments:
[1] = target: T1, C5-cytosine DNA methyltransferase M•HhaI (Haemophilus parahaemolyticus, UniProt P05102); assay: Enzyme reaction: M•HhaI-catalyzed coupling of cofactor with duplex oligodeoxynucleotide 6•7, followed by anion exchange chromatography; format: biochemical, Haemophilus haemolyticus; conditions: duplex 6•7 10 μM, M•HhaI 10 μM, compound 2 1 mM, pH 7.4, 25°C
T1 construct: made in house
T1 sequence (P05102 1-327): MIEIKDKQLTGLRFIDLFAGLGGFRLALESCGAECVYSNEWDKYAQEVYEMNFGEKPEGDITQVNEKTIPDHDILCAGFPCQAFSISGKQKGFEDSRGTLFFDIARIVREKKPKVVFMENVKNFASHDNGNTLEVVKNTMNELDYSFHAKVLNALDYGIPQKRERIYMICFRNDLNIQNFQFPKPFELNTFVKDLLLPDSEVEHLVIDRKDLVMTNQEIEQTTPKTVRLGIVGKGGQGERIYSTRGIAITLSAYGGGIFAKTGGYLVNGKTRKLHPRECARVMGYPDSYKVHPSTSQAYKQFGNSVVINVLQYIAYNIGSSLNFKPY
Method: The DNA methyltransferase M•HhaI free of cofactor was prepared as described before (B. Holz, S. Klimasauskas, S. Serva, E. Weinhold, Nucleic Acids Res. 1998, 26, 1076-1083). The enzyme-catalyzed reaction was carried out in a mixture (500 μl) of M•HhaI (5 nmol, 10 μM), duplex oligodeoxynucleotide 6•7 (5 nmol, 10 μM), compound 2 (500 nmol, 1 mM), Tris chloride (10 mM, pH 7.4), sodium chloride (50 mM), EDTA (0,5 mM) and Triton X-100 (0.01%) at 25° C. The progress of the reaction was monitored by anion exchange chromatography. Aliquots (50 μl) of the reaction mixture were withdrawn after different incubation times, and injected onto an anion exchange column (Poros 10 HQ, 10 μm, 4.6×100 mm, PerSeptive Biosystems, Germany). Compounds were eluted with aqueous potassium chloride (0 M for 5 min, followed by a linear gradient to 0.5 M in 5 min and to 1 M in 30 min, 4 ml/min) in Tris chloride buffer (20 mM, pH. 7.6).

[2] = target: T2, N6-adenine DNA methyltransferase M•TaqI (Thermus aquaticus, UniProt P14385); assay: Enzyme reaction: M•TaqI-catalyzed coupling of cofactor with duplex oligodeoxynucleotide 3•4, followed by anion exchange chromatography; format: biochemical; conditions: duplex 3•4 10 μM, M•TaqI 10 μM, pH 6.0, 37°C
T2 construct: made in house
Method: The DNA methyltransferase M•TaqI free of cofactor was prepared as described before (B. Holz, S. Klimasauskas, S. Serva, E. Weinhold, Nucleic Acids Res. 1998, 26, 1076-1083). The enzyme-catalyzed reaction was carried out in a mixture (500 μl) of M•TaqI (5 nmol, 10 μM), duplex oligodeoxynucleotide 3.4 (5 nmol, 10 μM), compound 2 (500 nmol, 1 mM), Tris acetate (20 mM, pH 6,0), potassium acetate (50 mM), magnesium acetate (10 mM) and Triton X-100 (0.01%) at 37°C. The progress of the reaction was monitored by anion exchange chromatography. Aliquots (50 μl) of the reaction mixture were withdrawn after different incubation times, mixed with an urea solution (100 μl, 6 M) and injected onto an anion exchange column (Poros 10 HQ, 10 μm, 4.6×100 mm, PerSeptive Biosystems, Germany). Compounds were eluted with aqueous potassium chloride (0.5 M for 5 min, followed by a linear gradient to 1 M in 30 min, 4 ml/min) in Tris chloride buffer (10 mM, pH 7.6).
The enzyme-catalyzed reaction was carried out in a mixture (500 μl) of cofactor free M-Taql (5 nmol, 10 μM), duplex oligodeoxynucleotide 3•4 (5 nmol, 10 μM), compound 9 (10 nmol, 20 μM), Tris acetate (20 mM, pH 6.0), potassium acetate (50 mM), magnesium acetate (10 mM) and Triton X-100 (0,01%) at 37° C. The progress of the reaction was monitored by anion exchange chromatography (Poros 10 HQ, 10 μm, 4,6×10 mm, PerSeptive Biosystems, Germany). Compounds were eluted with aqueous potassium chloride (0.2 M for 5 min, followed by a linear gradient to 0.5 M in 5 min and to 1 M in 30 min) in Tris chloride buffer (10 mM, pH 7.0). Complete conversion to a new product (containing DNA and protein) with a retention time of 7.9 min was observed after 15 h. […] Then, a solution (4 μl) of proteinase K (31 mg/ml), Tris chloride (50 mM, pH 8.0) and calcium chloride (1 mM) was added, and the reaction mixture was incubated at 37° C. for 1 h. The proteolytic fragmentation was monitored by anion exchange chromatography as described above. […]

[3] = target: T2, N6-adenine DNA methyltransferase M•TaqI; assay: Fluorescent labeling of plasmid DNA (pUC19) using M•TaqI; format: biochemical; conditions: M•TaqI 133 nM, pUC19 28 nM, compound 9 20 μM
Method: The enzyme-catalyzed labeling reaction was carried out in a mixture (500 μl) of cofactor free M•TaqI (133 nM), pUC19 DNA (28 nM, 4 recognition sites for M•TaqI), compound 9 (20 μM), Tris acetate (20 mM, pH 6,0), potassium acetate (50 mM), magnesium, acetate (10 mM) and Triton X-100 (0,01%) at 65° C. The progress of the reaction was monitored by anion exchange chromatography (NUCLEOGEN DEAE 4000-7, 7 μm, 125×6,2 mm, Machery-Nagel, Düren, Germany). Compounds were eluted with aqueous potassium chloride (0.2 M for 5 min followed by a linear gradient to 1 M in 30 min) in Tris chloride buffer (10 mM, pH 7.0) containing acetonitrile (20%). The chromatograms of the anion exchange chromatography after different incubation times are shown in FIG. 6 (A: UV detection at 260 nm; B: fluorescence detection). The delay between the observed UV absorption and the fluorescence is due to a spatial separation of the UV detector and the fluorescence detector. The labeling reaction yielding fluorescent pUC19 was completed after 8 h.

[4] = target: T1, C5-cytosine DNA methyltransferase M•HhaI; assay: Fluorescent labeling of plasmid DNA (pUC19) using M•HhaI; format: biochemical, Haemophilus haemolyticus; conditions: M•HhaI 730 nM, pUC19 40 nM, compound 9 20 μM, pH 6.85, 37°C, 20 h
Method: The enzyme-catalyzed labeling reaction was carried out in a mixture (100 μl) of M-HhaI (730 nM), pUC19 DNA (40 nM, 17 recognition sites for M•HhaI), compound 9 (20 μM), Tris chloride (10 mM, pH 6.85), sodium chloride (50 mM), EDTA (0,5 mM) and P-mercaptoethanol (2 mM) at 37° C. A parallel control experiment was performed without M•HhaI. Aliquots of both incubations after 20 h reaction time were analyzed by anion exchange chromatography as described above (see example 2, 3.1). The obtained chromatograms are shown in FIG. 8 (A: UV detection at 260 nm; B: fluorescence detection).

T2 sequence (P14385 whole entry): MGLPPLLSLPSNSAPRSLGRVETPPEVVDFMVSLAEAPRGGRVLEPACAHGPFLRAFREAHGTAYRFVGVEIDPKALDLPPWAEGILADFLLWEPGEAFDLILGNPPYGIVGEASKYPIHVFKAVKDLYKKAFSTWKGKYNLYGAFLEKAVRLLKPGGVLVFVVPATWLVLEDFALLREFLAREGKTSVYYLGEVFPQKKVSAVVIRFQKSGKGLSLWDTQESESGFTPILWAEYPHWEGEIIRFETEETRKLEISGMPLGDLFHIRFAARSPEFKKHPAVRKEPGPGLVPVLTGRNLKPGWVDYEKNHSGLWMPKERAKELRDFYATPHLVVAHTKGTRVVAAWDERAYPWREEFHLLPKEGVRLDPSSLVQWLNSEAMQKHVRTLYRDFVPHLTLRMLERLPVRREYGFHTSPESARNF

Nc1ncnc2c1ncn2[C@@H]1O[C@H](CN2CC2)[C@@H](O)[C@H]1O [Compound 2, N-Adenosylaziridine]
M•HhaI-catalyzed coupling of the cofactor to duplex oligodeoxynucleotide 6•7 [1]: quantitative
M•TaqI-catalyzed coupling of the cofactor with DNA ([2]; compound 2 1 mM): quantitative, sequence- and base-specific

CN(C)c1cccc2c(S(=O)(=O)NCCCCNc3nc4c(N)ncnc4n3[C@@H]3O[C@H](CN4CC4)C(O)[C@@H]3O)cccc12 (stereo partly shown) [Compound 9, 8-Amino[1″-(N″-dansyl)-4″-aminobutyl]-5′-(1-aziridinyl)-5′-deoxy adenosine]
fluorescence signal of pUC19 in anion exchange chromatography after labeling with M•TaqI ([3]; 65°C, different incubation times): increase of the fluorescence signal with the incubation time
time to completion of the labeling reaction yielding fluorescent pUC19 ([3]; pH 6.0, 65°C): 8 h
cofactor function in M•HhaI-catalyzed fluorescent labeling of pUC19 [4]: function as a cofactor for M•HhaI
coupling reaction of the fluorescent cofactor with DNA catalyzed by M•TaqI ([2]; compound 9 20 μM): quantitative and base-specific
time to complete conversion of duplex 3•4 to new product (containing DNA and protein) ([2]; compound 9 20 μM): 15 h
